Measured values reported in ChEMBL document CHEMBL5365487, “Development of 18F-Labeled PET Tracer Candidates for Imaging of the Abelson Non-receptor Tyrosine Kinase in Parkinson's Disease” (J Med Chem, 2023).

What was measured:
[1] = Half life in C57BL6 mouse brain at 1 mg/kg, iv single administration measured upto 24 hrs by LC-MS/MS analysis; type: ADME, organism-based
[2] = AUC (0 to last) in C57BL6 mouse brain at 1 mg/kg, iv single administration measured upto 24 hrs by LC-MS/MS analysis; type: ADME, organism-based; design: time < 24 hrs, dose 1 mg/kg, route iv
[3] = Metabolic stability in human liver microsomes assessed as stability measured after 30 mins by LC-MS/MS analysis; type: ADME, Microsome; settings: read-out: Drug metabolism
[4] = Ratio of total drug brain AUC to total plasma AUC in C57BL6 mouse brain at 1 mg/kg, iv single administration measured upto 24 hrs by LC-MS/MS analysis; type: ADME, organism-based
[5] = Plasma protein binding in CD-1 ISG mouse plasma measured after 4 hrs by equilibrium dialysis based LC-MS/MS analysis; type: ADME, cell-free; settings: read-out: PPB (converted)
[6] = AUC in C57BL6 mouse brain assessed as free brain drug at 1 mg/kg, iv single administration measured upto 24 hrs by LC-MS/MS analysis; type: ADME, organism-based; design: time < 24 hrs, dose 1 mg/kg, route iv; settings: in vivo
[7] = Initial plasma concentration in C57BL6 mouse plasma at 1 mg/kg, iv single administration measured upto 24 hrs by LC-MS/MS analysis; type: ADME, organism-based
[8] = AUC in C57BL6 mouse brain at 1 mg/kg, iv single administration measured upto 24 hrs by LC-MS/MS analysis; type: ADME, organism-based; design: time < 24 hrs, dose 1 mg/kg, route iv
[9] = In vivo stability in iv dosed Hsd:ICR (CD-1) mouse plasma assessed as stability measured after 5 mins by radio-HPLC analysis; type: ADME, organism-based; settings: for remaining at 5 min: Hsd:ICR (CD-1), plasma, read-out: Stability
[10] = In vivo stability in iv dosed Hsd:ICR (CD-1) mouse plasma assessed as stability measured after 45 mins by radio-HPLC analysis; type: ADME, organism-based; settings: for remaining at 0.75 h: Hsd:ICR (CD-1), plasma, read-out: Stability
[11] = Ex vivo biodistribution in Hsd:ICR (CD-1) mouse assessed as brain uptake at 12.5 to 26.9 MBq, iv measured for 5 to 90 mins in presence of imidazole [1,2-alpha]pyridine by gamma counter analysis; type: ADME, organism-based; settings: dose lower 12.5 MBq, time lower 5 min, dose upper 26.9 MBq, time upper 90 min
[12] = Ex vivo biodistribution in Hsd:ICR (CD-1) mouse assessed as thigh bone uptake at 12.5 to 26.9 MBq, iv measured after 90 mins by gamma counter analysis; type: ADME, organism-based; settings: dose 12.5-26.9 MBq
[13] = Ex vivo biodistribution in Hsd:ICR (CD-1) mouse assessed as blood uptake at 12.5 to 26.9 MBq, iv measured after 90 mins by gamma counter analysis; type: ADME, organism-based; settings: dose 12.5-26.9 MBq
[14] = Ex vivo biodistribution in Hsd:ICR (CD-1) mouse assessed as brain uptake at 12.5 to 26.9 MBq, iv measured for 5 mins by gamma counter analysis; type: ADME, organism-based; settings: dose 12.5-26.9 MBq
[15] = Biodistribution in Hsd:ICR (CD-1) mouse assessed as brain uptake at 12.5 to 26.9 MBq, iv in presence of imidazole [1,2-alpha]pyridine measured at early time points by PET imaging analysis; type: ADME, organism-based; settings: in vivo, dose 12.5-26.9 MBq
[16] = Ex vivo biodistribution in Hsd:ICR (CD-1) mouse assessed as thigh bone uptake at 12.5 to 26.9 MBq, iv measured for 5 mins by gamma counter analysis; type: ADME, organism-based; settings: dose 12.5-26.9 MBq
[17] = In vivo stability in iv dosed Hsd:ICR (CD-1) mouse brain assessed as stability measured after 5 mins by radio-HPLC analysis; type: ADME, organism-based; settings: read-out: Stability
[18] = Ex vivo biodistribution in Hsd:ICR (CD-1) mouse assessed as brain uptake at 12.5 to 26.9 MBq, iv measured for 5 to 90 mins by gamma counter analysis; type: ADME, organism-based; settings: dose lower 12.5 MBq, time lower 5 min, dose upper 26.9 MBq, time upper 90 min
[19] = In vivo stability in iv dosed Hsd:ICR (CD-1) mouse plasma assessed as stability measured after 90 mins by radio-HPLC analysis; type: ADME, organism-based; settings: for Stability: in vivo, iv
[20] = In vivo stability in iv dosed Hsd:ICR (CD-1) mouse brain assessed as stability measured after 90 mins by radio-HPLC analysis; type: ADME, organism-based; settings: read-out: Stability
[21] = In vivo stability in iv dosed Hsd:ICR (CD-1) mouse brain assessed as stability measured after 5 to 90 mins by radio-HPLC analysis; type: ADME, organism-based; settings: time 5-90 min
[22] = Ratio of total drug brain AUC to total plasma AUC in C57BL6 mouse brain at 0.5 mg/kg, iv single administration measured upto 24 hrs by LC-MS/MS analysis; type: ADME, organism-based
[23] = target: Interleukin-1 receptor-associated kinase 1 (Homo sapiens) (UniProt P51617); test: Inhibition of IRAK1 (unknown origin) at 1 uM by ADP-Glo kinase assay relative to control
Chain of Interleukin-1 receptor-associated kinase 1 (Homo sapiens) (P51617 whole entry, looked up): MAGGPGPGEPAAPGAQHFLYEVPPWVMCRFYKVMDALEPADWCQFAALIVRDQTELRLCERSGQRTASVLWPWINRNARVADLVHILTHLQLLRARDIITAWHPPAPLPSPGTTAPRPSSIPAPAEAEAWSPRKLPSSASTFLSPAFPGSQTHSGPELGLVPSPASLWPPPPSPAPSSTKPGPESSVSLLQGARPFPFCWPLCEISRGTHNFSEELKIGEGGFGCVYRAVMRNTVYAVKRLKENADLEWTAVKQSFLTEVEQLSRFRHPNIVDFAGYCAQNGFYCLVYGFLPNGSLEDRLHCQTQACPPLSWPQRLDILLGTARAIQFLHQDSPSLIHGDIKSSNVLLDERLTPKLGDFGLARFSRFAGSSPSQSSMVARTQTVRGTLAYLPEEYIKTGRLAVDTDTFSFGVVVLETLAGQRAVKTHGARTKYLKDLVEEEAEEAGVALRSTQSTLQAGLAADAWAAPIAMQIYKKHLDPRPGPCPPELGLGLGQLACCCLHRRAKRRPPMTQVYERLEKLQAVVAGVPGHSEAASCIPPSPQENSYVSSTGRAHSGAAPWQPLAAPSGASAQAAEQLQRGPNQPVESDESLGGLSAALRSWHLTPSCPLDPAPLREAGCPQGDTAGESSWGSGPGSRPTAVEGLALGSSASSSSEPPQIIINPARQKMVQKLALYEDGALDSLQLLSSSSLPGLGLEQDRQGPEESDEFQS

[24] = target: Tyrosine-protein kinase Lck (Homo sapiens) (UniProt P06239); test: Inhibition of LCK (unknown origin) at 1 uM by ADP-Glo kinase assay relative to control
Chain of Tyrosine-protein kinase Lck (Homo sapiens) (P06239 2-509 limits assumed): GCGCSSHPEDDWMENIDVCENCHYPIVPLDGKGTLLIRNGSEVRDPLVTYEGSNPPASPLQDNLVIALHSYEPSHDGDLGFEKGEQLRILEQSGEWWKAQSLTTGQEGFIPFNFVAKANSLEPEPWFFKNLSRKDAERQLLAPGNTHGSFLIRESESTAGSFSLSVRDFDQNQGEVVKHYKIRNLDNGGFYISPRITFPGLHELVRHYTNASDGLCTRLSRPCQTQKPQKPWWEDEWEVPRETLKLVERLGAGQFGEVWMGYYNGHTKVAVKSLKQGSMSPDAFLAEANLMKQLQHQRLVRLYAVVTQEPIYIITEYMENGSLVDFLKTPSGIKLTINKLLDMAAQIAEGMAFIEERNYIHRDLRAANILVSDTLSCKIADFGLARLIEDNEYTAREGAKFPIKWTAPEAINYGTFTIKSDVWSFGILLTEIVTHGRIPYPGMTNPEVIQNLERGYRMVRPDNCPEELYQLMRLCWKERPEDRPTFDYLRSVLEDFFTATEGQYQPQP

[25] = target: Receptor-interacting serine/threonine-protein kinase 2 (Homo sapiens) (UniProt O43353); test: Inhibition of RIPK2 (unknown origin) at 1 uM by ADP-Glo kinase assay relative to control
Chain of Receptor-interacting serine/threonine-protein kinase 2 (Homo sapiens) (O43353 whole entry): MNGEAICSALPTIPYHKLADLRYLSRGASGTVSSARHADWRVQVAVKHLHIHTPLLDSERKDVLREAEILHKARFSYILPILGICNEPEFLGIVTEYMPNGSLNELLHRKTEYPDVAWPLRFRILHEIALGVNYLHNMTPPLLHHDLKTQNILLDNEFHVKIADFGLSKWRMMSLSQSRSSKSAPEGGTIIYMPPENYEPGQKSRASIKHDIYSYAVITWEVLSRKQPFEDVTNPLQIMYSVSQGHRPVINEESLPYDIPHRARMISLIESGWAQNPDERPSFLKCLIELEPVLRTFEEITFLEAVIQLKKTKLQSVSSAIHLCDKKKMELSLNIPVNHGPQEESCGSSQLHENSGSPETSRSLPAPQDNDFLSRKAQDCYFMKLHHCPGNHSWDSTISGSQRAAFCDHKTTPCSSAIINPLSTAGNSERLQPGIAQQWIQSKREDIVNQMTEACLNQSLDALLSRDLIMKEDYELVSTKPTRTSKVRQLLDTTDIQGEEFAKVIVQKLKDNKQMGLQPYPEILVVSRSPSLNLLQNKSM

[26] = target: T1, Interleukin-1 receptor-associated kinase 3 (Homo sapiens) (UniProt Q9Y616); test: Inhibition of IRAK3 (unknown origin) at 1 uM by ADP-Glo kinase assay relative to control
T1 sequence (whole entry): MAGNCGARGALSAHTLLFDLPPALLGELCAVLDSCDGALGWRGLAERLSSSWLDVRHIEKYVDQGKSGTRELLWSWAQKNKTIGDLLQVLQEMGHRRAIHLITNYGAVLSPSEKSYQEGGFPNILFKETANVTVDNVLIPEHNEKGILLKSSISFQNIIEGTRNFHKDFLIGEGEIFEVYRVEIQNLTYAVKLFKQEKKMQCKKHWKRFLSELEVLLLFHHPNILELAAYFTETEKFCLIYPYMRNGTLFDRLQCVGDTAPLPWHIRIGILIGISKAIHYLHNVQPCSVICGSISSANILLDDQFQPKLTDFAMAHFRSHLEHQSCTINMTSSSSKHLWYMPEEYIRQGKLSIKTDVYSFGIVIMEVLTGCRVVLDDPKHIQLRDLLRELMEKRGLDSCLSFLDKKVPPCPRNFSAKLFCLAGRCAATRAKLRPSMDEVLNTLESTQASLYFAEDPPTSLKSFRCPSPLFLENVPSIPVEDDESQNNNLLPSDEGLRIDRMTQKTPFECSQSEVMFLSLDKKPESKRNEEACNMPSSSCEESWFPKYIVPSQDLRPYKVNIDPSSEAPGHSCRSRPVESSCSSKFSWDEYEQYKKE

[27] = AUC (0 to last) in C57BL6 mouse brain at 0.5 mg/kg, iv single administration measured upto 24 hrs by LC-MS/MS analysis; type: ADME, organism-based; design: time < 24 hrs, dose 0.5 mg/kg, route iv
[28] = Initial plasma concentration in C57BL6 mouse plasma at 0.5 mg/kg, iv single administration measured upto 24 hrs by LC-MS/MS analysis; type: ADME, organism-based
[29] = Ratio of free drug brain AUC to free plasma AUC in C57BL6 mouse brain at 0.5 mg/kg, iv single administration measured upto 24 hrs by LC-MS/MS analysis; type: ADME, organism-based; settings: read-out: K(p,uu,brain)
[30] = target: Leucine-rich repeat serine/threonine-protein kinase 2 (Homo sapiens) (UniProt Q5S007); test: Inhibition of LRRK2 (unknown origin) at 1 uM by ADP-Glo kinase assay relative to control
Chain of Leucine-rich repeat serine/threonine-protein kinase 2 (Homo sapiens) (Q5S007 whole entry): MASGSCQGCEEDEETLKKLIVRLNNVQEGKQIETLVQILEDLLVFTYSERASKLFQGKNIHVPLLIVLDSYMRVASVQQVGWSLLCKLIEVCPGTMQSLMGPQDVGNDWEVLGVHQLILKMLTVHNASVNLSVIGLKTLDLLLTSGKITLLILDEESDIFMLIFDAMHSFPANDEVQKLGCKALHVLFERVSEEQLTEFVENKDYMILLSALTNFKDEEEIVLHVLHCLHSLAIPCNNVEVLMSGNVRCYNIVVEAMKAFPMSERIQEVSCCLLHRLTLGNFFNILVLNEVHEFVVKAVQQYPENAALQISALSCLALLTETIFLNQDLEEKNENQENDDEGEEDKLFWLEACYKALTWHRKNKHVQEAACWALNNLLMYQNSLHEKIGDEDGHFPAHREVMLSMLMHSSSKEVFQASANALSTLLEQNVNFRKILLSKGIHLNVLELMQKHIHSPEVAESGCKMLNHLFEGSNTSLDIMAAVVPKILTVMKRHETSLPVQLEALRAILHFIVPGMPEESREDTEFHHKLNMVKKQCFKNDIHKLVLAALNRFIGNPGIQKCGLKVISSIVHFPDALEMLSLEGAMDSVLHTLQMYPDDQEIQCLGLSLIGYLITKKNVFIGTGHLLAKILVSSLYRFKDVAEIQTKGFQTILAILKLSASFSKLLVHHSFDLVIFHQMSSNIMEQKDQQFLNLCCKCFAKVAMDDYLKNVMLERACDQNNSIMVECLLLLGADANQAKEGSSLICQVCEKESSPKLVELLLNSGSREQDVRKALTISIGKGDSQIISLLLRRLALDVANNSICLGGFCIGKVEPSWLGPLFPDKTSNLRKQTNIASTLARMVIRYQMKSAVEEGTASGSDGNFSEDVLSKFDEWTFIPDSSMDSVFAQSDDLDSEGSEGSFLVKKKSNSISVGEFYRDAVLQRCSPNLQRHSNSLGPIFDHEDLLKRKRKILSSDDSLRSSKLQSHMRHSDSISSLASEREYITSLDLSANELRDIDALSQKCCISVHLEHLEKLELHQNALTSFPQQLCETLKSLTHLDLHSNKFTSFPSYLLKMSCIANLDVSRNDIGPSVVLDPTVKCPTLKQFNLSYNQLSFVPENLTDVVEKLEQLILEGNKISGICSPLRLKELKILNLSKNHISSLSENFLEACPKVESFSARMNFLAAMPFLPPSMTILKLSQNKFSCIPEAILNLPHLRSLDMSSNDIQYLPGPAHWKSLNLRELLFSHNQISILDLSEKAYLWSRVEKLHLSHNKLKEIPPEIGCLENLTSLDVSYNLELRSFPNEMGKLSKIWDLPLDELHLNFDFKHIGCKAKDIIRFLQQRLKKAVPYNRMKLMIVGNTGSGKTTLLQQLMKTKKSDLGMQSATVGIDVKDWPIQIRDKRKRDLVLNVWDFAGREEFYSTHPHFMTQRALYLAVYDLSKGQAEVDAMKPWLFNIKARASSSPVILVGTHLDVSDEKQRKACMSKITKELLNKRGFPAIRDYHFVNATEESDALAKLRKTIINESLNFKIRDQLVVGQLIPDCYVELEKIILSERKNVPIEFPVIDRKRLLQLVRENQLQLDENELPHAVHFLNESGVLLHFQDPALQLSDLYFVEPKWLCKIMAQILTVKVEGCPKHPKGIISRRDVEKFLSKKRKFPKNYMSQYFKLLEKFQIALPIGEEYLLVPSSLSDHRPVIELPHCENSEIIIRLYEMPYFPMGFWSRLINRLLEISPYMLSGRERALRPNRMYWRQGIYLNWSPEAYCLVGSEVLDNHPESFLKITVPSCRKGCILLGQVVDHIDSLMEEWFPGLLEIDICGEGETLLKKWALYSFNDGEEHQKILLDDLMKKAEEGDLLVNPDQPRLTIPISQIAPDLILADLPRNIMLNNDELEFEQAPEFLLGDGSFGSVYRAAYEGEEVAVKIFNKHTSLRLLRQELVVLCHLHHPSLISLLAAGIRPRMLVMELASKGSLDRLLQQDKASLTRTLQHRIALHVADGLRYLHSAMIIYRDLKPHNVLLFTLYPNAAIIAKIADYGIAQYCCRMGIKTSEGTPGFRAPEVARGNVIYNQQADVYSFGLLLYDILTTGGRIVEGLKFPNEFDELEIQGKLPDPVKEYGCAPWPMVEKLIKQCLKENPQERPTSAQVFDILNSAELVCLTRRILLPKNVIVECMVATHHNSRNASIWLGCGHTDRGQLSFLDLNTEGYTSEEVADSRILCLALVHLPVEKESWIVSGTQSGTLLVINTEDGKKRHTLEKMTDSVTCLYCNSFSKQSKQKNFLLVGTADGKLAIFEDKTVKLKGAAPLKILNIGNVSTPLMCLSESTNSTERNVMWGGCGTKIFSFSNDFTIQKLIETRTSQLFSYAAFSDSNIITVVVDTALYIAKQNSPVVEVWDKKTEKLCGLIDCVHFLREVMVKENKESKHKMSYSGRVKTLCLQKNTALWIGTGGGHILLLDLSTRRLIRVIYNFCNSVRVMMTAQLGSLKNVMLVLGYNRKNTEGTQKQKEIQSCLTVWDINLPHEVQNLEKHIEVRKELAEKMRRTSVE

[31] = Half life in C57BL6 mouse brain at 0.5 mg/kg, iv single administration measured upto 24 hrs by LC-MS/MS analysis; type: ADME, organism-based
[32] = AUC in C57BL6 mouse brain assessed as free brain drug at 0.5 mg/kg, iv single administration measured upto 24 hrs by LC-MS/MS analysis; type: ADME, organism-based; design: dose 0.5 mg/kg, time < 24 hrs, route iv; settings: in vivo
[33] = AUC in C57BL6 mouse brain at 0.5 mg/kg, iv single administration measured upto 24 hrs by LC-MS/MS analysis; type: ADME, organism-based; design: dose 0.5 mg/kg, time < 24 hrs, route iv

SMILES | half-life [1] [min] | AUC(0-t) at 24 h [2] [ng·h/mL] | remaining at 0.5 h [3] [%] | Kp at 24 h [4] | fraction unbound at 4 h [5] | AUC [6] [ng·h/mL] | C0 at 24 h [7] [ng/mL] | AUC at 24 h [8] [ng·h/mL] | remaining at 5 min [9] [%] | remaining at 0.75 h [10] [%] | Drug uptake [11] | Drug uptake [13] [% ID/g] | Drug uptake [14] [% ID/g] | remaining at 5 min [17] [%] | Drug uptake [18] | Stability [19] | remaining at […] [20] [%] | also measured
O=C(Nc1cn2cc(-c3ccccc3CCF)ccc2n1)[C@@H]1C[C@@H]1F | 12 | 597 | < 30 | 0.31 | 0.0734 | 5 | 597 | 182 |  |  |  |  |  |  |  |  |  | 
O=C(Nc1cn2cc(-c3cccc(F)c3OCCF)ccc2n1)[C@@H]1C[C@@H]1F | 30 | 536 | < 30 | 0.21 | 0.0692 | 4 | 536 | 112 |  |  |  |  |  |  |  |  |  | 
O=C(Nc1cn2cc(-c3ccccc3CC[18F])ccc2n1)[C@@H]1C[C@@H]1F |  |  |  |  |  |  |  |  | 72 | 13 | Active | 0.3 | 3.1 | 93 | Active | Unstable | 8.5 | Drug uptake [12]: 2.7 % ID/g; Drug uptake [15]: Active; Drug uptake [16]: 1.6 % ID/g
Cc1cc([18F])ncc1-c1ccc2nc(NC(=O)[C@@H]3C[C@@H]3F)sc2c1 |  |  |  |  |  |  |  |  |  |  | Active | 1.2 | 4.2 |  | Active |  |  | Stability ([9]; in vivo, iv, 5 min): Stable; Stability ([10]; in vivo, iv, 0.75 h): Stable; Stability [21]: 99.42%; remaining at […] ([19]; Hsd:ICR (CD-1), plasma, read-out: Stability): 91%
O=C(Nc1cn2cc(-c3cccc(F)c3OCC[18F])ccc2n1)[C@@H]1C[C@@H]1F |  |  |  |  |  |  |  |  | 64 | 18 | Active | 0.2 | 1.1 | 88 | Active | Unstable | 33 | 
Cc1cc(F)ncc1-c1ccc2nc(NC(=O)[C@@H]3C[C@@H]3F)sc2c1 |  |  | < 30 |  | 0.0192 |  |  |  |  |  |  |  |  |  |  |  |  | Kp at 24 h [22]: 0.49; inhibition [23]: > 80%; inhibition [24]: > 80%; inhibition [25]: > 80%; inhibition [26]: > 80%; AUC(0-t) at 24 h [27]: 3380 ng·h/mL; C0 at 24 h [28]: 1580 ng/mL; Kp uu at 24 h [29]: 0.15; inhibition [30]: > 80%; half-life [31]: 540 min; AUC [32]: 10 ng·h/mL; AUC at 24 h [33]: 1670 ng·h/mL
